Read-outs that look alike come from different tables or passages of the source. Marks after values point to notes of the source that are not given here.
Tests used:
[1] = parameters: species or system cynomolgus monkey (Macaca fascicularis); settings: cynomolgus monkey, in vivo, 0.1 mg/kg
Procedure: Briefly, protein was purified using batch absorption to protein L-agarose affinity resin followed by elution with glycine at pH 2.0 and neutralisation woth Tris PH 8.0. This was followed by ion exchange chromotography on a Resource S column using a 0-1M salt gradient in 20 mM acetate pH5.0. Fractions containing the desired protein were then combined and buffer exchanged into 100 mM NaCl, 20 mM citrate pH6.2. Protein was extensively QCed (including SDS-PAGE, mass spec, activity assay:GLP-1R-BA, pH check, osmolarity check), filter sterilised and endotoxin removed. Protein with confimed low endotoxin (<0.05 EU/mg protein) was then used for the in vivo study. Six female cynomolgus monkeys (Macaca fascicularis; Charles River Laboratories BRF, Houston, Tex., Primate Products, Miami, Fla. and/or Covance Research Products, Inc., Alice, Tex.) were used in this study. The monkeys were approximately 2 to 9 years old (with a body weight range of approximately 2 to 5 kilograms) at initiation of dosing. The monkeys were housed individually in stainless-steel cages in an environmentally controlled room(s) (64 F to 84 F; 30 to 70% relative humidity) with a 12-hour light/dark cycle. The female monkeys were offered approximately 6 biscuits twice daily of Monkey Diet #5038 (PMI Nutrition International, Richmond, Ind.) and a daily allotment of fresh fruit. […] Dose was at 0.1 mg/Kg. On the days of dosing, the first feeding occurred within approximately 1 hour post dose for each monkey (extended up to 2.5 hours post dose if study-related procedures required animals to be out of their local housing for an extended period of time). The second feeding was no sooner then two hours following the first feeding. For the purpose of environmental enrichment, additional fruit, legume and/or vegetable (e.g., grapes, baby carrots, peanuts) was provided to each monkey at or around the time of viability check or as a method of reward after acclimation or study-related procedures. Filtered tap water (supplied by Aqua Pennsylvania, Inc. and periodically analyzed) was available ad libitum. Plasma samples (approx 2 ml) were collected from the femoral vessel at predose (0 hour) and nominally at 5 minutes (iv group only), 0.5, 4, 8, 24, 48, 96, 144, 192, 288, 336, 504 and 672 hours after dosing. (PK samples from one of the animals in the iv dose group were only collected to 24 h so this animal has been excluded from the PK fitting). Analysis of samples was by mass spectrometry, and fitting of the data was using WinNonLin fitting software. PK parameters were as follows for iv administration (n=2): T1/2 67 h, MRT 46 h, Vz 327 ml/Kg and Cl 3.3 ml/hr/Kg; and for sc administration (n=3): T1/2 68 h, MRT 98 h, Vz 306 ml/Kg and Cl 3.1 ml/hr/Kg. Bioavailability was calculated as 99%.

db/db mice = assay: Oral glucose tolerance test (OGTT) in db/db mouse model of type II diabetes; type: in vivo
From the text: Animals were sorted by decreasing glucose levels three days prior to the start of the experiment and then blocked. One animal within each block was then assigned to each of the 26 study groups. This ensured similar mean starting glucose level in each of the study groups.

For “Exendin 4 (G4S linker)3 DOM7h-14 dAb fusion [DAT0115]”, the Bioavailability [1] was 99%, the Cl ([1]; iv) was 3.3 mL/h/kg and the MRT ([1]; iv) was 46 h. It also gave a T1/2 ([1]; iv) of 67 h, a Vz ([1]; iv) of 0.327 L/kg and a Cl ([1]; sc) of 3.1 mL/h/kg. It also gave an MRT ([1]; sc) of 98 h, a T1/2 ([1]; sc) of 68 h and a Vz ([1]; sc) of 0.306 L/kg. The “timepoints out to which glucose AUC was significantly decreased compared to vehicle” value (db/db mice; 0.1 mg/Kg and 0.3 mg/Kg doses sc) was no more than 24 h, the “percentage reduction in glucose AUC compared to vehicle” value (from here on “percentage reduction in glucose AUC”) (db/db mice; 0.1 mg/kg sc, OGTT +5 hrs relative to dosing) was 60%* and the “percentage reduction in glucose AUC” value (db/db mice; 0.1 mg/kg sc, OGTT +24 hrs) was 36%*. For the same substance, the “percentage reduction in glucose AUC” value (db/db mice; 0.1 mg/kg sc, OGTT +48 hrs) was 28%, the “percentage reduction in glucose AUC” value (db/db mice; 0.1 mg/kg sc, OGTT +72 hrs) was 16% and the “percentage reduction in glucose AUC” value (db/db mice; 0.1 mg/kg sc, OGTT +96 hrs) was −12%. The “percentage reduction in glucose AUC” value (db/db mice; 0.3 mg/kg sc, OGTT +24 hrs) was 59%*, the “percentage reduction in glucose AUC” value (db/db mice; 0.3 mg/kg sc, OGTT +48 hrs) was 26% and the “percentage reduction in glucose AUC” value (db/db mice; 0.3 mg/kg sc, OGTT +72 hrs) was 26%. The “timepoints out to which glucose AUC was significantly decreased compared to vehicle” value (db/db mice; 1 mg/Kg dose sc) was no more than 72 h, the “percentage reduction in glucose AUC” value (db/db mice; 1 mg/kg sc, OGTT +5 hrs) was 76%* and the “percentage reduction in glucose AUC” value (db/db mice; 1 mg/kg sc, OGTT +24 hrs) was 50%*. The “percentage reduction in glucose AUC” value (db/db mice; 1 mg/kg sc, OGTT +48 hrs) was 37%*, the “percentage reduction in glucose AUC” value (db/db mice; 1 mg/kg sc, OGTT +72 hrs) was 41%* and the “percentage reduction in glucose AUC” value (db/db mice; 1 mg/kg sc, OGTT +96 hrs) was 12%.

Reference: US20130189255A1, “FUSIONS AND CONJUGATES OF INSULINOTROPIC AGENTS” (GLAXO GROUP LIMITED, priority 2008, published 2013)
